Measurements reported in patent US20220146526A1, “METHOD FOR EVALUATING SAMPLE, ANALYSIS METHOD, METHOD FOR DETECTING DEGRADED SAMPLE, MARKER FOR DETECTING DEGRADED BLOOD PLASMA SAMPLE, AND MARKER FOR DETECTING DEGRADED SERUM SAMPLE” (SHIMADZU CORPORATION, priority 2019, published 2022).
One block for each molecule: values may come before it.

Key:
Type in all cases: physicochemical, human
[1] = GC/MS of serum sample: number of times of freezing and thawing (Table I); design: key to Rate of increase or decrease / Rate of increase or decrease (first value, increase): detection intensity relative to 2 freeze-thaw cycles = 1; conditions: for Rate of increase or decrease: 10 times of freezing and thawing, relative to 1 at 2 times, different from individual to individual
Method in brief: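 Detection intensities are ratios to the value after two freeze–thaw cycles, which is set as 1, compared against 4, 6 and 10 cycles. Analysis used methoxymation and trimethylsilylation derivatization, then GC/MS with EI ionization and multiple reaction monitoring on a BPX5 column. Serum came from blood held at room temperature and spun at 3500 rpm for 5 min.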

[2] = GC/MS of blood plasma sample: time from blood collection to cooling of blood (Table B); design: key to Rate of increase or decrease / Rate of increase or decrease (first value, increase): detection intensity relative to 1 at cooling time ≤1 min
Protocol: (§1) At room temperature, 5 mL of blood from a healthy subject was taken into a blood-collecting vessel containing EDTA, and the blood-collecting vessel was inverted for mixing, then cooled, and allowed to stand at 4° C. Here, in order to investigate how the detection intensity of molecules contained in the sample was affected in a case where the time to cooling was set to 5 minutes or more as compared to that in a case where the time to cooling was set to 1 minute or less, preparations were performed under both the former condition and the latter condition. After standing, the blood sample was subjected to centrifugation under a condition of 4° C., 3000 rpm, and 15 minutes. […] After centrifugation, the blood-collecting vessel was left to stand at room temperature for 30 minutes, and the blood plasma was isolated during this 30 minutes. The obtained blood plasma sample was frozen and stored. Here, in order to investigate how the detection intensity of molecules contained in the sample was affected in cases where freezing and thawing was performed 4 times, 6 times, and 10 times after freezing as compared to that in a case where freezing and thawing was performed 2 times after freezing, freezing and thawing was performed under the respective conditions of 2, 4, 6, and 10 times.
(§2) Frozen blood plasma samples and serum samples were subjected to GC/MS or LC/MS. In GC/MS, the blood plasma samples and serum samples were subjected to methoxymation and trimethylsilylation and then introduced to GC-MS.
GC/MS was conducted using GCMS·TQ8040 (Shimadzu Corporation) that was a GC·MS equipped with AOC·20i (Shimadzu Corporation) as an autosampler.
Column: BPX5 (inner diameter of 0.25 mm, length of 30 m, and film thickness of 0.25 μm) (SGE)
Column temperature: maintained at 60° C. for 2 minutes, then raised at 15° C./min, and maintained at 330° C. for 3 minutes.
Inlet temperature: 250° C.
Carrier gas control mode: constant linear velocity of 39.0 cm/sec
Sample introduction method: split (split ratio of 30:1) Injection volume: 1 μL
Ionization method: electron ionization
Ionization current: 60 μA
Interface temperature: 280° C.
Ion source temperature: 200° C.
(§3) Mode: multiple reaction monitoring (MRM)
Table B presents compounds of which the detection intensity increased or decreased by 30% or more in a case where the time from blood collection to cooling of blood, when a blood plasma sample was analyzed by GC/MS, was set to 5 minutes or more as compared to that in a case where the time was set to 1 minute or less. The rate of increase or decrease in Table B is the value of detection intensity relative to 1 that is the detection intensity in a case where the time from blood collection to cooling is set to 1 minute or less.

[3] = GC/MS of serum sample: time from centrifugation to isolation (Table H); design: key to Rate of increase or decrease / Rate of increase or decrease (first value, increase): detection intensity relative to 1 at 30 min centrifugation-to-isolation
Method in brief: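 Values are GC/MS (EI, MRM) detection intensities of methoxymated/trimethylsilylated serum, normalised to 1 for the 30-min sample. Serum was isolated 30 min, 1 h or 6 h after room-temperature centrifugation (3500 rpm, 5 min) of blood.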

[4] = GC/MS of serum sample: time from blood collection to centrifugation (Table G); conditions: blood collection to centrifugation
Method in brief: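 Values express detection intensity as a ratio to the sample centrifuged 15 minutes after blood collection (taken as 1). Serum was derivatized by methoxymation and trimethylsilylation, then analysed by electron-ionization GC/MS using multiple reaction monitoring on a BPX5 column ramped from 60 to 330° C.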

[5] = LC/MS of serum sample: number of times of freezing and thawing (Table M); design: key to Rate of increase or decrease: detection intensity relative to 1 at 2 freeze-thaw cycles; conditions: for Number of times when compound is affected / Increase or decrease: serum sample, LC/MS; for Number of times when compound is affected: detection intensity changed by 30% or more vs 2 times of freezing and thawing; for Increase or decrease: detection intensity vs 2 times of freezing and thawing
Method in brief: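 Values are detection intensities relative to serum thawed twice, versus 4, 6 or 10 freeze-thaw cycles. Serum came from blood spun at room temperature, 3500 rpm for 5 minutes. Analysis: electrospray LC/MS in MRM mode, Discovery HS F5-3 column, 40° C, 0.1% formic acid in water and acetonitrile.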

[6] = LC/MS of blood plasma sample: number of times of freezing and thawing (Table F); conditions: for Rate of increase or decrease: detection intensity relative to 1 at 2 times; for Increase or decrease: detection intensity
Protocol: as §1, §2
(§4) Analysis column: Discovery HS F5-3 (inner diameter of 2.1 mm, length of 150 mm, film thickness of 3 μm) (Sigma-Aldrich)
(§5) Column temperature: 40° C.
(§6) (A) 0.1% formic acid (dissolved in water)
(§7) (B) 0.1% formic acid (dissolved in acetonitrile)
(§8) Flow velocity: 0.25 mL/min
(§9) Ionization method: electrospray
(§10) Temperature: • Desolvation Line (DL) temperature: 250° C. • Heat block temperature: 400° C. • Interface temperature: 300° C.
(§11) Gas flow rate: • Nebulizer gas flow rate: 3.0 L/min • Drying gas flow rate: 10.0 L/min • Heating gas flow rate: 10.0 L/min
as §3
The rate of increase or decrease in Table F is the value of detection intensity relative to 1 that is the detection intensity in a case where the number of times of freezing and thawing is set to 2 times.

[7] = LC/MS of serum sample: time from blood collection to centrifugation (Table J); conditions: for Rate of increase or decrease: detection intensity relative to 1 at 15 minutes; for Increase or decrease / Time when compound is affected: serum sample, LC/MS; for Increase or decrease: detection intensity vs 15 minutes from blood collection to centrifugation; for Time when compound is affected: time from blood collection to centrifugation, detection intensity changed by 30% or more vs 15 minutes
Protocol: After standing, the blood sample was subjected to centrifugation under a condition of room temperature, 3500 rpm, and 5 minutes. […] After centrifugation, the blood-collecting vessel was left to stand at room temperature, and the serum was isolated during this time. Here, in order to investigate how the detection intensity of molecules contained in the sample was affected in cases where the time during which the blood-collecting vessel was left at room temperature was set to 1 hour and 6 hours as compared to that in a case where the time was set to 30 minutes, preparations were performed under the respective conditions of 30 minutes, 1 hour, and 6 hours. The obtained serum sample was frozen and stored. Here, in order to investigate how the detection intensity of molecules contained in the sample was affected in cases where freezing and thawing was performed 4 times, 6 times, and 10 times after freezing as compared to that in a case where freezing and thawing was performed 2 times after freezing, freezing and thawing was performed under the respective conditions of 2, 4, 6, and 10 times.
as §2, §4, §5, §6, §7, §8, §9, §10, §11, §3
The rate of increase or decrease in Table J is the value of detection intensity relative to 1 that is the detection intensity in a case where the time from blood collection to centrifugation is set to 15 minutes.

[8] = LC/MS of blood plasma sample: time from blood collection to centrifugation (Table D); conditions: for Rate of increase or decrease: detection intensity relative to 1 at 15 minutes; for Rate of increase or decrease / Increase or decrease: blood collection to centrifugation; for Increase or decrease: detection intensity
Method in brief: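 Detection intensities are expressed relative to samples centrifuged 15 min after collection (=1), measured by electrospray LC/MS in MRM mode (Discovery HS F5-3, 40 °C, formic acid water/acetonitrile gradient at 0.25 mL/min). EDTA blood from a healthy donor was held at 4 °C, centrifuged at 4 °C, 3000 rpm, 15 min, and plasma frozen.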

Rate of increase or decrease ([1]; first value (increase)): 2.65
Rate of increase or decrease ([1]; second value (decrease)): 0.63
Number of times when compound is affected ([1]; serum sample, GC/MS, detection intensity changed by 30% or more vs 2 times of freezing and thawing): 10 times
Increase or decrease ([1]; serum sample, GC/MS, detection intensity vs 2 times of freezing and thawing): Different from individual
Increase or decrease ([2]; detection intensity, blood collection to cooling 5 minutes or more vs 1 minute or less): Different from individual
Rate of increase or decrease (second value, decrease) ([2]; different from individual to individual, individuals with decrease, relative to 1 at 1 minute or less, collection to cooling 5 minutes): 0.67
Rate of increase or decrease (first value, increase) ([2]; different from individual to individual, individuals with increase, relative to 1 at 1 minute or less, collection to cooling 5 minutes): 2.33
Increase or decrease ([3]; detection intensity, after 6 hours vs 30 minutes): Different from individual
Rate of increase or decrease (second value, decrease) ([3]; different from individual to individual, individuals with decrease, relative to 1 at 30 minutes, after 6 hours): 0.61
Rate of increase or decrease (first value, increase) ([3]; different from individual to individual, individuals with increase, relative to 1 at 30 minutes, after 6 hours): 2.04
Rate of increase or decrease ([4]; detection intensity relative to 1 at 15 minutes, after 4 hours): 2.98
Increase or decrease ([4]; detection intensity, after 4 hours vs 15 minutes): Increase
SMILES: Cn1c(=O)[nH]c2ncn(C)c2c1=O [Paraxanthine]

Rate of increase or decrease ([5]; 4 times of freezing and thawing, detection intensity relative to 1 at 2 times): 1.47
Number of times when compound is affected [5]: 4 times
Increase or decrease [5]: Increase
Rate of increase or decrease ([6]; freezing and thawing 4 times): 1.46
Increase or decrease ([6]; freezing and thawing 4 times vs 2 times): Increase
Rate of increase or decrease ([7]; after 6 hours from blood collection to centrifugation): 1.57
Increase or decrease [7]: Increase
Time when compound is affected [7]: After 6 hours
Rate of increase or decrease ([8]; after 4 hours): 0.50
Rate of increase or decrease ([8]; after 6 hours): 0.61
Increase or decrease ([8]; after 4 hours vs 15 minutes): Decrease
Increase or decrease ([8]; after 6 hours vs 15 minutes): Decrease
SMILES: O=C(O)CCC(=O)O [Succinic acid]

Rate of increase or decrease ([5]; 6 times of freezing and thawing, relative to 1 at 2 times, different from individual to individual, first value (increase)): 1.33
Rate of increase or decrease ([5]; 6 times of freezing and thawing, relative to 1 at 2 times, different from individual to individual, second value (decrease)): 0.66
Number of times when compound is affected [5]: 6 times
Increase or decrease [5]: Different from individual
Rate of increase or decrease ([6]; freezing and thawing 10 times): 1.44
Increase or decrease ([6]; freezing and thawing 10 times vs 2 times): Increase
Rate of increase or decrease ([7]; after 12 hours from blood collection to centrifugation): 1.34
Increase or decrease [7]: Increase
Time when compound is affected [7]: After 12 hours
Increase or decrease ([8]; after 12 hours vs 15 minutes): Different from individual
Rate of increase or decrease (second value, decrease) ([8]; different from individual to individual, individuals with decrease, relative to 1 at 15 minutes, collection to centrifugation, after 12 hours): 0.65
Rate of increase or decrease (first value, increase) ([8]; different from individual to individual, individuals with increase, relative to 1 at 15 minutes, collection to centrifugation, after 12 hours): 1.31
SMILES: CC[C@H](C)[C@H](N)C(=O)O [Isoleucine]
